Measurements from article PMC5944846 (ACS chemical biology, 2018).
Values after ≈ are worked out from the molar mass of the structure shown. Where two headings read alike, the source gives them in different places.

Tested on: E. coli ATCC 25922
Assay: MIC against E. coli ATCC 25922
Assay type: cell-based
Details: Escherichia coli

## CN(C)[C@@H]1C(O)=C(C(N)=O)C(=O)[C@@]2(O)C(O)=C3C(=O)c4c(O)cccc4[C@@](C)(O)[C@H]3[C@H](O)[C@@H]12 [oxytetracycline]
ATCC25922, read-out: oxytetracycline + 32 μg/mL tyrobetaine MIC
  MIC: 8 µg/mL
ATCC25922, read-out: oxytetracycline MIC
  MIC: 4 µg/mL (≈ 8.69 µM)
